Results: PubChem BioAssay (NCI)
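Growth conditions: 96-well plates. Treatment: test compound, 48 hours, 5 concentrations. Analysis: linear interpolation between bracketing concentrations; unreached endpoints set to highest concentration. Abbreviation: GI50, concentration required for 50% inhibition of growth. The concentration for full growth arrest is given as TGI.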 Where a SMILES comes first, the peptide text is derived from it. [ ]: non-standard residue; d: D form.

Experiments:
Experiment in all cases: DTP human tumour cell line panel, 48 h
XF 498 CNS = tested on: XF 498 CNS
HOP-18 NSCLC = tested on: HOP-18 NSCLC
MDA-N = tested on: MDA-N
PC-3 prostate = tested on: PC-3 prostate
T-47D breast = tested on: T-47D breast

| Structure (SMILES) | TGI (HOP-18 NSCLC) [µM] | TGI (PC-3 prostate) [µM] | TGI (T-47D breast) [µM] | GI50 (PC-3 prostate) [µM] | GI50 (T-47D breast) [µM] | also measured |
| --- | --- | --- | --- | --- | --- | --- |
| O=C1C(=Cc2ccc(F)cc2)C(=O)c2ccccc21 | – | – | – | – | – | TGI (XF 498 CNS): > 100 µM |
| N#CNC1=NCCC(=O)N1CCc1c[nH]c2ccccc12 | – | – | – | – | – | TGI (XF 498 CNS): > 100 µM |
| NC1=Nc2ccccc2Sc2ccccc21 | > 100 | – | – | – | – | TGI (XF 498 CNS): > 100 µM |
| CC1OC(=O)N2CCC=CC12 (stereo not drawn) | > 100 | – | – | – | – | TGI (XF 498 CNS): > 100 µM |
| CSCC[C@H](NC(=O)[C@@H](N)CC(N)=O)C(=O)N[C@@H](Cc1c[nH]c2ccccc12)C(=O)N[C@@H](CCC(N)=O)C(=O)N[C@@H](CCC(=O)O)C(=O)N[C@H](C(=O)NCC(=O)N[C@@H](CCCCN)C(=O)N[C@H](C)C(=O)O)C(C)C (H-NMWQEVGK[dA]-OH) | – | > 100 | > 100 | – | – | TGI (MDA-N): > 100 µM |
| COc1ccc2c(c1)C=CC1C2CC[C@]2(C)C(NC(=O)/C=C/c3ccc(O)c(O)c3)CCC12 (stereo partly drawn) | – | 18 | 29 | 4.64 | 12.2 | – |
| COC(=O)C#CC(N)=O | > 81.1 | – | – | – | – | – |
| C1CC[N-]CC1.CC(=N\O)/C(C)=N/O.CC(=N\O)/C(C)=N/O.C[CH-]C(C)O.[Co+2] | – | 70.8 | 41.1 | 26.7 | 12.6 | GI50 (MDA-N): 26.6 µM; TGI (MDA-N): 77 µM |
| CCOC(=O)N(O)c1ccc(/C=C/c2ccccc2)cc1 | – | > 100 | 8.81 | 8.23 | 0.452 | – |
| COc1cc2c(=O)n(CC3CCCCC3)c3c4cc[nH]c4ncc3c2cc1OC | – | 12.2 | > 50 | 2.23 | 3.66 | – |
| CC(=O)OC1=C(CC(C)(C)C)C(=O)c2ccccc2C1=O | – | > 100 | > 100 | – | – | – |
| N#C/C(=C1\OC(N)=C(c2ccc(Cl)cc2)C1=O)c1ccc(Cl)cc1 | 30.8 | – | – | – | – | – |
| COc1ccc(F)cc1-c1ccnc2[nH]c(C3=CCN(C4CCC(CC(=O)O)CC4)CC3)cc12 (stereo not drawn) | – | > 100 | > 100 | 0.313 | 0.187 | – |
| CN(C)Cc1cc(C(C)(C)C)cc(CN(C)C)c1O | – | > 100 | > 100 | – | – | TGI (MDA-N): > 100 µM |
| Cc1c(C2CCSc3ccccc3N2)sc2ccccc12 (stereo not drawn) | – | > 100 | > 100 | – | – | TGI (MDA-N): > 100 µM |
| Cc1nc(-n2nc(-c3ccccc3)cc2-c2ccccc2)sc1C(=O)CC(=O)C(=O)Nc1ccc(O)cc1 | > 100 | – | – | – | – | – |
| Cc1ccc(C)c(NC(=O)C(=O)Nn2c(=S)[nH]c3ccccc3c2=O)c1 | > 100 | – | – | – | – | – |
| NC(=O)c1nc(-c2ccc(Cl)c(Cl)c2)nc2ccccc12 | > 100 | – | – | – | – | TGI (XF 498 CNS): > 100 µM |
| COC(=O)C(C)Oc1ccc(O)cc1 (stereo not drawn) | > 100 | – | – | – | – | – |
| CCOC(=O)CC(C)C1(C=O)CCCCC1=O (stereo not drawn) | > 100 | – | – | – | – | TGI (XF 498 CNS): > 100 µM |
| O=S(=O)(Nc1ccc(Cl)c(Cl)c1)c1ccc(-c2cnc(C3CC3)o2)cc1 | – | 14.5 | 18.6 | 0.474 | 0.349 | – |

| Structure (SMILES) | TGI (HOP-18 NSCLC) [µM] | TGI (PC-3 prostate) [µM] | TGI (T-47D breast) [µM] | GI50 (PC-3 prostate) [µM] | GI50 (T-47D breast) [µM] | also measured |
| --- | --- | --- | --- | --- | --- | --- |
| N/C(CC(=O)NOC(=O)c1ccccc1)=N/OC(=O)c1ccccc1 | – | > 100 | > 100 | – | – | TGI (MDA-N): > 100 µM |
| O=C1/C(=C/c2ccc(O)cc2)Oc2ccccc21 | – | > 100 | > 100 | – | – | TGI (MDA-N): > 100 µM |
| CCCCOP1(=O)CC(C)=C(Cl)C(C)(OC)C1 (stereo not drawn) | – | – | – | – | – | TGI (XF 498 CNS): > 100 µM |
| O=C(N/C(=C\c1ccc(F)cc1)c1nc2ccccc2[nH]1)c1ccccc1 | > 100 | – | – | – | – | TGI (XF 498 CNS): > 100 µM |
| COc1ccc(C2C3=C(COC3=O)N(CCO)c3cc4c(cc32)CCC4)cc1 (stereo not drawn) | – | > 50 | > 50 | 6.22 | 3.87 | – |
| CC1/C(=N/O)CC(c2ccccc2)N(N=O)C1c1ccccc1 (stereo not drawn) | – | > 100 | > 100 | – | – | TGI (MDA-N): > 100 µM |
| CC[C@@H](C(=O)[C@@H](C)[C@@H](O)[C@H](C)[C@@H]1O[C@@H]([C@@H](CC)C(=O)O)CC[C@@H]1C)[C@H]1O[C@]2(C=C[C@@H](O)[C@]3(CC[C@@](C)([C@H]4CC[C@](O)(CC)[C@H](C)O4)O3)O2)[C@H](C)C[C@@H]1C | – | 32.6 | 16.7 | 0.084 | 0.383 | – |
| CCCCCC/C(CC(=O)CCC(=O)NCCc1ccccc1)=N\Nc1ccc([N+](=O)[O-])cc1[N+](=O)[O-] | > 100 | – | – | – | – | – |
| C[C@@H]1Cc2c(ccc3[nH]ncc23)[C@@H](c2ccc(NC3CN(CCCF)C3)cn2)N1CC(F)(F)F | – | 47.8 | 23.2 | 15.6 | < 0.01 | – |
| C=CCCC(=O)CC(=O)OCc1ccccc1 | > 100 | – | – | – | – | TGI (XF 498 CNS): > 100 µM |
| O=[N+]([O-])c1ccc2nc(-c3ccc(Cl)cc3)[nH]c2c1 | – | 63.6 | 55.7 | – | – | TGI (MDA-N): 51.1 µM |
| CC/C(C)=C1\CCC(CN(C)C)C1=O (stereo not drawn) | 32.2 | – | – | – | – | TGI (XF 498 CNS): 34.7 µM |
| CNc1nc(-c2ccc3c(N)n[nH]c3c2)cc(N2C[C@@H](C(=O)NC3CCCCC3)CC[C@H]2C)n1 | – | 18.4 | 5.3 | 0.405 | 0.13 | – |
| Cc1nc(-n2nc(-c3ccccc3)cc2-c2ccccc2)sc1C(=O)/C=C/c1cccc([N+](=O)[O-])c1 | 24.5 | – | – | – | – | – |
| C=Cc1cc(OC)c2c(c1)c(=O)oc1c2cc(OC)c2c(O)ccc(C3OC(C(C)O)C(O)C3O)c21 (stereo not drawn) | – | 0.153 | 0.08 | 0.0105 | 0.00812 | – |
| COC1CC(n2cc(F)c(N)nc2=O)OC1CO (stereo not drawn) | > 100 | – | – | – | – | TGI (XF 498 CNS): > 100 µM |
| CS(=O)(=O)CCNCc1ccoc1-c1ccc2ncnc(Nc3ccc(OCc4ccccc4)cc3)c2c1 | – | > 25 | > 25 | > 25 | 7.86 | – |
| Cc1c2ccccc2c(C)n2c1nc1cc(Cl)c(Cl)cc12 | – | > 100 | > 100 | 31.4 | 3.95 | – |
| O=C1CC2OCC=C3CN4CCC5(C(=O)O)C(N1)C2C3CC45 (stereo not drawn) | – | > 100 | > 100 | – | – | TGI (MDA-N): > 100 µM |
| O=C(CCc1cc(-c2ccc(F)cc2)n[nH]1)N(Cc1ccccc1)Cc1ccccc1 | > 100 | – | – | – | – | TGI (XF 498 CNS): > 100 µM |
